{
  "source": "patent US11771778B2",
  "about": "“Using DREADD for neuronal modulation in treating neuronal diseases” (priority 2016, dated 2023)",
  "key": {"[1]": {"test": "Open field test, mice without DREADD (normal control and 6OHDA hemi PD)", "assay_type": "in vivo, C57 black mice", "conditions": "normal control and 6OHDA hemi PD mice, no DREADD, IP CNO 5 mg/kg, blinded", "procedure": "(§1) To monitor the motor impairment and the ability of the DREADD therapy to reverse these impairments the following behavioral tests are conducted. Open field test: to measure motor activity dysfunction. In this test the spontaneous movement of mice in a square arena are recorded and quantified. Rotarod test: Mice were placed on a rotating rod with rotation speed gradually increasing from 4 to 40 RPM using a preset acceleration program. The time mice fell from the rotating rod was measured, with 300 seconds being the maximal time measured on the rod.\n(§2) Experiments were performed on 2-4 month old wild type C57 black mice. […]\n(§3) Two behavioral tests were used for monitoring the behavior of mice: (1) Open field test: Mice were placed in a 30 cm×30 cm×30 cm open top box for 5 minutes and continuous recorded on a video. The results were analyzed off-line after the experiments ended. Using the EthoVision software, the mean velocity and distance traveled by the mice were monitored during the 5 minutes of open field test. In addition, the number and direction of 180° turns were monitored with the EthoVision software. […] The time mice fell from the rotating rod was measured, with 300 seconds being the maximal time measured on the rod. […]"}, "[2]": {"test": "Rotarod test, mice without DREADD (normal control and 6OHDA hemi PD)", "assay_type": "in vivo, C57 black mice", "conditions": "normal control and 6OHDA hemi PD mice, no DREADD; IP CNO 5 mg/kg, blinded", "procedure": "as §1, §2, §3"}, "[3]": {"molecular_target": "T1, Gi DREADD (hM4D(Gi)) in the EP (GPi) and SNr nuclei (Homo sapiens, UniProt P08173, A203G/Y113C)", "T1 construct": "expressed in transfected cells; host or cells: neurons of C57 black mice (EP/SNr or STN), transduced with an AAV8 vector under the hSyn promoter", "T1 sequence (P08173 1-479 Y113C/A203G)": "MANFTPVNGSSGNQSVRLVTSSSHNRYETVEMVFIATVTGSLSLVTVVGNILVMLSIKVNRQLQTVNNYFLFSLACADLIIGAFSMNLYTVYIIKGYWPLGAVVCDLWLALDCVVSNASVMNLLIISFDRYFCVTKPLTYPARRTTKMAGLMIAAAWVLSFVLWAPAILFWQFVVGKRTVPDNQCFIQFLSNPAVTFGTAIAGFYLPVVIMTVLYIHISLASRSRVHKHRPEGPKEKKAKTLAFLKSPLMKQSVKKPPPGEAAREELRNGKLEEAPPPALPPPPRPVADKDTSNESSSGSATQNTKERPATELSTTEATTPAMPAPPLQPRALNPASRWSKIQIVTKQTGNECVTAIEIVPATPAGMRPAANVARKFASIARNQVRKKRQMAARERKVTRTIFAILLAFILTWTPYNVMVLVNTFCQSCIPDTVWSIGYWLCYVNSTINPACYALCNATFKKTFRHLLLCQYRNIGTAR", "test": "Open field test, 6OHDA PD mice expressing Gi DREADD in EP and SNr", "assay_type": "in vivo, C57 black mice", "procedure": "as §1\n(§4) Experiments were performed on 2-4 month old wild type C57 black mice. To induce experimental PD, 1 microliter of a solution containing 6 hydroxy dopamine (6-OHDA) (3 mg/1 ml) was injected into the medial forebrain bundle via a small craniotomy drilled in the skull. The mouse head was fixated in a stereotaxic frame, and the 6OHDA containing solution was injected using a glass pipette held by a micro-manipulator and a micro-injector.\n(§5) To express DREADDs (either the inhibitory DREADD Gi or the excitatory DREADD Gq) viral vectors were injected (either AAV8-hSyn-hM3D(Gq)-mCherry or AAV8-hSyn-hM4D(Gi)-mCherry). The viral vectors were injected through a craniotomy with a glass pipette held by a micromanipulator and a micro-injector. During the injections the head was fixated in a stereotaxic frame for accurate injections. Mice were anesthetized throughout the procedure with isoflurane.\n(§6) The viral vectors […] were injected into several targets in the basal ganglia loop including the STN (either Gi and Gq), the EP and SNr nuclei (Gi), GPe (Gq) and the ventral thalamus (Gq). The injections were usually unilateral at the side of the 6OHDA injections. However, in cases of bilateral 6OHDA injections viral vectors were injected to the target nuclei bilaterally. Usually viral vectors and 6OHDA were injected at the same session.\n(§7) To investigate the effect of DREADD activation, 500 μl of either IP CNO (5 mg/kg) or normal saline (NS-0.9% NaCl) was administered. Administration of either CNO or saline was performed in a blinded manner. […] Behavioral experiments were performed approximately 20-30 minutes after IP drug administration.\nas §3"}, "[4]": {"molecular_target": "T1, Gi DREADD (hM4D(Gi)) in the EP (GPi) and SNr nuclei", "test": "Rotarod test, 6OHDA PD mice expressing Gi DREADD in EP and SNr", "assay_type": "in vivo, C57 black mice", "procedure": "as §1, §2, §3"}, "[5]": {"molecular_target": "T2, Gq DREADD (hM3D(Gq)) in the GPe nucleus (Homo sapiens, UniProt P20309, A239G/Y149C)", "T2 construct": "expressed in transfected cells; host or cells: neurons of C57 black mice (GPe or STN), transduced with an AAV8 vector under the hSyn promoter", "T2 sequence (P20309 whole entry Y149C/A239G)": "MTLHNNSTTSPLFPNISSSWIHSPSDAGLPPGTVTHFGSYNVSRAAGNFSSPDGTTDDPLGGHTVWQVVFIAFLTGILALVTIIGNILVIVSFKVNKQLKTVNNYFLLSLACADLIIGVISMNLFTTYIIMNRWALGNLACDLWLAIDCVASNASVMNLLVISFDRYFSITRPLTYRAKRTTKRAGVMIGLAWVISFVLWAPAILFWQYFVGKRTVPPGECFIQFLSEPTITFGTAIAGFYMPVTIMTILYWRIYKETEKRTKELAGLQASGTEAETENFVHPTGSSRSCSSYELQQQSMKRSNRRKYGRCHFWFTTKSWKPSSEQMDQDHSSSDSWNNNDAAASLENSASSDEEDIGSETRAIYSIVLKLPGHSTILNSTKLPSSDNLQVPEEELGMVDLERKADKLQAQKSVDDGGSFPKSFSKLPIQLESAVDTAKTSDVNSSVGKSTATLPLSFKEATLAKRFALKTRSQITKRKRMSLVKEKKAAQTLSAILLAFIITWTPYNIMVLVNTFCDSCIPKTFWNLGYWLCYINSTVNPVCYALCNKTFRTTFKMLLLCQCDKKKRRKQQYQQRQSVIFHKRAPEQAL", "test": "Open field test, 6OHDA PD mice expressing Gq DREADD in GPe", "assay_type": "in vivo, C57 black mice", "procedure": "as §1, §4, §5\nas §6, with “session. […]” for “session.”\nas §3\nIn this set of experiments, the GPe nucleus, which serves as a major relay nucleus exclusively belonging to the indirect pathway, was targeted. More specifically, the GPe neurons were activated using the excitatory Gq DREADDs, and the effect on behavior on 6-OHDA induced hemi-parkinsonian mice, was monitored."}, "[6]": {"molecular_target": "T2, Gq DREADD (hM3D(Gq)) in the GPe nucleus", "test": "Rotarod test, 6OHDA PD mice expressing Gq DREADD in GPe", "assay_type": "in vivo, C57 black mice", "procedure": "as §1, §2, §3"}, "[7]": {"molecular_target": "T3, Gi DREADD (hM4D(Gi)) in the STN (Homo sapiens, UniProt P08173, A203G/Y113C)", "T3 construct": "expressed in transfected cells; host or cells: neurons of C57 black mice (EP/SNr or STN), transduced with an AAV8 vector under the hSyn promoter", "T3 sequence (P08173 1-479 Y113C/A203G)": "T1 sequence (P08173 1-479 Y113C/A203G)", "test": "Open field test, 6OHDA PD mice expressing Gi DREADD in STN", "assay_type": "in vivo, C57 black mice", "conditions": "blinded IP CNO", "procedure": "as §1, §2, §3"}, "[8]": {"molecular_target": "T3, Gi DREADD (hM4D(Gi)) in the STN", "test": "Rotarod test, 6OHDA PD mice expressing Gi DREADD in STN", "assay_type": "in vivo, C57 black mice", "conditions": "blinded IP CNO", "procedure": "as §1, §2, §3"}, "[9]": {"molecular_target": "T4, Gq DREADD (hM3D(Gq)) in the STN (Homo sapiens, UniProt P20309, A239G/Y149C)", "T4 construct": "expressed in transfected cells; host or cells: neurons of C57 black mice (GPe or STN), transduced with an AAV8 vector under the hSyn promoter", "T4 sequence (P20309 whole entry Y149C/A239G)": "as above", "test": "Open field test, 6OHDA PD mice expressing Gq DREADD in STN", "assay_type": "in vivo, C57 black mice", "conditions": "IP CNO 5 mg/kg", "procedure": "as §1, §4, §5, §6, §7, §3"}, "[10]": {"molecular_target": "T4, Gq DREADD (hM3D(Gq)) in the STN", "test": "Rotarod test, 6OHDA PD mice expressing Gq DREADD in STN", "assay_type": "in vivo, C57 black mice", "conditions": "IP CNO 5 mg/kg", "procedure": "as §1, §2, §3"}, "hM3Dq receptor (hM3D)": {"molecular_target": "T5, hM3Dq receptor (hM3D) (Homo sapiens, UniProt P20309, A239G/Y149C)", "T5 construct": "host or cells: human pulmonary artery smooth muscle cells", "T5 sequence (P20309 whole entry Y149C/A239G)": "as above", "conditions": "human pulmonary artery smooth muscle cells (Armbruster et al., 2007); cited from earlier work"}, "[11]": {"molecular_target": "T6, wild-type M3 muscarinic receptor (hM3) (Homo sapiens, UniProt P20309)", "T6 construct": "host or cells: human pulmonary artery smooth muscle cells", "T6 sequence (P20309 whole entry)": "as the sequence (P20309 whole entry Y149C/A239G) above, with C149Y, G239A counted along it", "conditions": "human pulmonary artery smooth muscle cells (Armbruster et al., 2007); cited from earlier work"}, "[12]": {"conditions": "6OHDA bilateral PD mice, bilateral Gi DREADD in both EP and SNr nuclei, p<0.01"}, "[13]": {"conditions": "6OHDA hemi PD mice, unilateral Gi DREADD in EP and SNr, IP CNO 5 mg/kg"}, "[14]": {"conditions": "6OHDA bilateral PD mice, Gq DREADD in both GPe nuclei, p<0.01"}, "[15]": {"conditions": "6OHDA hemi PD mice, unilateral Gq DREADD in GPe, IP CNO 5 mg/kg"}, "[16]": {"conditions": "6OHDA hemi PD mice, unilateral Gq DREADD in STN"}, "[17]": {"conditions": "bilateral 6OHDA PD mice, bilateral Gq DREADD in STN"}},
  "data": [
    {"molecule": "C[N+]1([O-])CCN(C2=Nc3cc(Cl)ccc3Nc3ccccc32)CC1", "note": "[CNO, clozapine-N-oxide]", "values": [
      {"measurement": "movement velocity in the open field test, CNO vs NS", "setting": "[1]", "value": "no significant differences"},
      {"measurement": "ipsilateral turning (number and percent of clockwise rotations), CNO vs NS", "setting": "[1]; 5-minute open field", "value": "no significant differences"},
      {"measurement": "time to falling off the rotating rod, CNO vs NS", "setting": "[2]", "value": "no significant differences"},
      {"measurement": "mean velocity in motor activity test, CNO vs NS", "setting": "[3]; [12]", "value": "beneficial effect"},
      {"measurement": "improvement in the mean velocity in the open field test compared to NS", "setting": "[3]; [13]", "value": "36±9", "unit": "%"},
      {"measurement": "reduction in the number of clockwise rotations compared to NS", "setting": "[3]; [13]", "value": "68.9±10.8", "unit": "%"},
      {"measurement": "reduction in the percent of clockwise rotations compared to NS", "setting": "[3]; [13]", "value": "46±8.6", "unit": "%"},
      {"measurement": "average time on the rotating rod in the rotarod test, CNO vs NS", "setting": "[4]; [12]", "value": "beneficial effect"},
      {"measurement": "increase in the time spent on the rotating rod in the rotarod test compared to NS", "setting": "[4]; [13]", "value": "30.5±7.1", "unit": "%"},
      {"measurement": "mean velocity in motor activity test, CNO vs NS", "setting": "[5]; [14]", "value": "beneficial effect"},
      {"measurement": "increase in the mean velocity in the open field test compared to NS", "setting": "[5]; [15]", "value": "77.2±24.7", "unit": "%"},
      {"measurement": "reduction in the number of clockwise rotations compared to NS", "setting": "[5]; [15]", "value": "37.7±20", "unit": "%"},
      {"measurement": "reduction in the percent of clockwise rotations compared to NS", "setting": "[5]; [15]", "value": "40±7.8", "unit": "%"},
      {"measurement": "average time on the rotating rod in the rotarod test, CNO vs NS", "setting": "[6]; [14]", "value": "beneficial effect"},
      {"measurement": "increase in the time spent on the rotating rod in the rotarod test compared to NS", "setting": "[6]; [15]", "value": "25.6±6.1", "unit": "%"},
      {"measurement": "effect on turns, CNO vs NS", "setting": "[7]", "value": "small, yet significant beneficial effect"},
      {"measurement": "mean velocity in the open field test, CNO vs NS", "setting": "[7]", "value": "did not significantly affect"},
      {"measurement": "performances in the rotarod test, CNO vs NS", "setting": "[8]", "value": "did not significantly affect"},
      {"measurement": "increase in the mean velocity in the open field test compared to NS", "setting": "[9]; [16]", "value": "117.6±26.9", "unit": "%"},
      {"measurement": "reduction in the number of clockwise rotations compared to NS", "setting": "[9]; [16]", "value": "37.2±17", "unit": "%"},
      {"measurement": "reduction in the percent of clockwise rotations compared to NS", "setting": "[9]; [16]", "value": "47.6±11.1", "unit": "%"},
      {"measurement": "increase in the mean velocity in the open field test compared to NS", "setting": "[9]; [17]", "value": "294.4±70.9", "unit": "%"},
      {"measurement": "performances in the rotarod test, CNO vs NS", "setting": "[10]; [16]", "value": "no significant differences"},
      {"measurement": "increase in the time before falling off the rotarod compared to NS", "setting": "[10]; [17]", "value": "81±15.8", "unit": "%"},
      {"measurement": "activation of hM3Dq receptor resulting in PIP2 hydrolysis", "setting": "hM3Dq receptor (hM3D)", "value": "selectively activated"},
      {"measurement": "activation of wild-type M3 muscarinic receptor (hM3)", "setting": "[11]", "value": "not by CNO"}
    ]},
    {"molecule": "CC(=O)OCC[N+](C)(C)C", "note": "[ACh]", "values": [
      {"measurement": "activation of wild-type M3 muscarinic receptor (hM3)", "setting": "[11]", "value": "potently activated"}
    ]}
  ]
}
